# Article PMC10290137, “Systems-level analyses of protein-protein interaction network dysfunctions via epichaperomics identify cancer-specific mechanisms of stress adaptation” (Nature Communications, 2023)
# Read-outs that look alike come from different tables or passages of the source.
# What was measured:
# HSC70 [1] = system: T1, HSC70; test: CETSA in MDA-MB-468 cells and homogenates; the value is the IC50 for epiHSP70s disruption in cancer cells; type: cell-based
# T1 construct: gene HSPA8; endogenous epiHSP70 epichaperome assemblies in human cancer cells (probably MDA-MB-468); HSC70/HSP70 pool, no recombinant construct
# HSC70 [2] = target: T2, HSC70 (Homo sapiens, UniProt P11142); test: reconstituted purified HSC70: fluorescence anisotropy peptide release ([…] YK198) and stopped-flow MABA-ATP binding ([…]); also CETSA; type: biochemical
# T2 construct: gene HSPA8
# T2 sequence (P11142 2-646): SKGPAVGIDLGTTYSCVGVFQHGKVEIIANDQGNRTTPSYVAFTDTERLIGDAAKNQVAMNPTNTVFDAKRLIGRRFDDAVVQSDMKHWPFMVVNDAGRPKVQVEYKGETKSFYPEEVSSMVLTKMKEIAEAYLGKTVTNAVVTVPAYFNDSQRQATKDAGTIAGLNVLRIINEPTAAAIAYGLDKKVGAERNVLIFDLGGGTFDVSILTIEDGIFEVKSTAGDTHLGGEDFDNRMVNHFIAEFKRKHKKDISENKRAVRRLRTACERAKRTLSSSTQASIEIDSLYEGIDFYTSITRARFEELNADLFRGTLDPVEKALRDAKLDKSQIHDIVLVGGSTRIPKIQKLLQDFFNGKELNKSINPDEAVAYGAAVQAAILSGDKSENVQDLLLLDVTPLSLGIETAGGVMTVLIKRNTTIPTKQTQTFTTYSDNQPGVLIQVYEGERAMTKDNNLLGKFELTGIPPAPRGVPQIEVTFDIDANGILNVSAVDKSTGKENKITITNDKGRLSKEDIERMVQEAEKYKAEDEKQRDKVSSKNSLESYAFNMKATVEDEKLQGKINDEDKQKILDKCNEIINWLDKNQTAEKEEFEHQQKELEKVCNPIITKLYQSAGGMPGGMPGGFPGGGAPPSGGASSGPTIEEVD
# HSC70 [3] = system: T1, HSC70; test: CETSA in MDA-MB-468 cells and homogenates; the value is the IC50 for epiHSP70s disruption in cancer cells; type: cell-based; remark: listed apart in the source
# From the text: CETSA in MDA-MB-468 cells and homogenates; the value is the IC50 for epiHSP70s disruption in cancer cells (b12) on HSC70 | three evaluated YKs—YK5, YK198 and LSI137—we observed in CETSA, performed both in cells and cell homogenates, a significant thermal stabilization
structure (smiles),measurement,setting,value
COc1cccc(COc2nc(N3CCC(N(C)C)C3)ncc2Sc2ccc(N)nc2)c1 (stereo not drawn) [LSI137],IC50,HSC70 [1],60 nM
CN1CCN(c2ncc(Sc3ccc(N)nc3)c(OCc3ccccc3)n2)CC1 [YK198],reconstituted purified HSC70: fluorescence anisotropy peptide release (100 uM YK),HSC70 [2],"biochemical effect of YKs on HSP70s manifests majorly at the allosteric release of the interactor protein, impairing its release"
C=CC(=O)Nc1cc(N)nc(Sc2c(OC)nc(N3CCN(C)CC3)nc2OC)n1 [YK5],IC50,HSC70 [3],5 µM
